The nature of the series: activity coefficient (dimensionless); of the first substance listed, at infinite dilution; xn = mol fraction of the nth substance listed. To be noted: 101.33 kPa, Liquid, Chromatography, x1 = 0.

Each structure is given as a SMILES string. Numbers after ± are expanded uncertainties.

With `Cc1ccccc1C` [1,2-dimethylbenzene] + N#C[N-]C#N.OCCC[n+]1ccccc1, the activity coefficient (318.15 K) was found to be 11.1 ± 0.8; the activity coefficient (328.15 K) worked out at 11.5 ± 0.8; the activity coefficient (338.15 K) is 11.9 ± 0.8; the activity coefficient (348.15 K) was 12.3 ± 0.8; the activity coefficient (358.15 K) amounted to 12.7 ± 0.9; the activity coefficient (368.15 K) was determined as 13 ± 0.9.

For `Cc1cccc(C)c1` [1,3-dimethylbenzene] + N#C[N-]C#N.OCCC[n+]1ccccc1, the activity coefficient runs as follows: (318.15 K) 14.4 ± 1; (328.15 K) 14.8 ± 1; (338.15 K) 15.3 ± 1; (348.15 K) 15.7 ± 1.1; (358.15 K) 16.1 ± 1.1; (368.15 K) 16.5 ± 1.1.

With `Cc1ccc(C)cc1` [1,4-dimethylbenzene] + N#C[N-]C#N.OCCC[n+]1ccccc1, the activity coefficient (318.15 K) came to 13.8 ± 0.9; the activity coefficient (328.15 K) was 14.3 ± 1; the activity coefficient (338.15 K) amounted to 14.8 ± 1; the activity coefficient (348.15 K) is 15.3 ± 1; the activity coefficient (358.15 K) amounted to 15.7 ± 1.1; the activity coefficient (368.15 K) was found to be 16.2 ± 1.1.

`C1COCCO1` [1,4-dioxane] + N#C[N-]C#N.OCCC[n+]1ccccc1: the activity coefficient came out at 1.74 ± 0.12 (318.15 K); 1.86 ± 0.13 (328.15 K); 1.99 ± 0.14 (338.15 K); 2.12 ± 0.14 (348.15 K); 2.25 ± 0.15 (358.15 K); 2.38 ± 0.16 (368.15 K).

With `C=CCCCCCCCC` [1-decene] + N#C[N-]C#N.OCCC[n+]1ccccc1, the activity coefficient came out at 1030 ± 71 (298.15 K); 954 ± 66 (308.15 K); 887 ± 61 (318.15 K); 829 ± 57 (328.15 K); 777 ± 54 (338.15 K); 731 ± 50 (348.15 K). Further, for the setting “358.15 K”, the activity coefficient is 691 ± 48.

For `C=CCCCCC` [1-heptene] + N#C[N-]C#N.OCCC[n+]1ccccc1, the activity coefficient runs as follows: (298.15 K) 223 ± 15; (308.15 K) 211 ± 15; (318.15 K) 200 ± 14; (328.15 K) 190 ± 13; (338.15 K) 182 ± 13; (348.15 K) 174 ± 12. The activity coefficient (358.15 K) stood at 167 ± 11.

As to `C#CCCCCC` [1-heptyne] + N#C[N-]C#N.OCCC[n+]1ccccc1, the activity coefficient reads like this: (298.15 K) 35.7 ± 2.4; (308.15 K) 36.5 ± 2.5; (318.15 K) 37.4 ± 2.6; (328.15 K) 38.2 ± 2.6; (338.15 K) 39 ± 2.7; (348.15 K) 39.7 ± 2.7. Further, where the note is “358.15 K”, the activity coefficient is 40.4 ± 2.8.

With `C#CCCCC` [1-hexyne] + N#C[N-]C#N.OCCC[n+]1ccccc1, the activity coefficient was 19.8 ± 1.4 (298.15 K); 20.6 ± 1.4 (308.15 K); 21.5 ± 1.5 (318.15 K); 22.5 ± 1.5 (328.15 K); 23.4 ± 1.6 (338.15 K); 24.3 ± 1.7 (348.15 K). The activity coefficient (358.15 K) worked out at 25.2 ± 1.7.

As for `CCC[N+](=O)[O-]` [1-nitropropane] + N#C[N-]C#N.OCCC[n+]1ccccc1, the activity coefficient runs as follows: (318.15 K) 2.96 ± 0.2; (328.15 K) 3.08 ± 0.21; (338.15 K) 3.18 ± 0.22; (348.15 K) 3.28 ± 0.22; (358.15 K) 3.37 ± 0.23; (368.15 K) 3.47 ± 0.24.

Consider `C#CCCCCCC` [1-octyne] + N#C[N-]C#N.OCCC[n+]1ccccc1, for which the activity coefficient (298.15 K) turned out to be 67.5 ± 4.6; the activity coefficient (308.15 K) was 68.5 ± 4.7; the activity coefficient (318.15 K) was 69.4 ± 4.8; the activity coefficient (328.15 K) turned out to be 70.2 ± 4.8; the activity coefficient (338.15 K) was 71.1 ± 4.9; the activity coefficient (348.15 K) turned out to be 71.8 ± 4.9. For the same compound, the activity coefficient (358.15 K) was determined as 72.6 ± 5.

Turning to `C=CCCC` [1-pentene] + N#C[N-]C#N.OCCC[n+]1ccccc1, the activity coefficient (298.15 K) worked out at 74.6 ± 5.1, the activity coefficient (308.15 K) was 70.2 ± 4.8, the activity coefficient (318.15 K) came out at 66.3 ± 4.5 and the activity coefficient (328.15 K) worked out at 63.1 ± 4.3.

As to `C#CCCC` [1-pentyne] + N#C[N-]C#N.OCCC[n+]1ccccc1, the activity coefficient (298.15 K) was determined as 11.1 ± 0.8; the activity coefficient (308.15 K) was determined as 11.6 ± 0.8; the activity coefficient (318.15 K) came to 12.1 ± 0.8; the activity coefficient (328.15 K) worked out at 12.6 ± 0.9; the activity coefficient (338.15 K) worked out at 13.1 ± 0.9; the activity coefficient (348.15 K) came to 13.5 ± 0.9. The activity coefficient (358.15 K) came to 14 ± 1.

`CC(C)CC(C)(C)C` [2,2,4-trimethylpentane] + N#C[N-]C#N.OCCC[n+]1ccccc1: the activity coefficient turned out to be 800 ± 55 (298.15 K), 714 ± 49 (308.15 K), 640 ± 44 (318.15 K) and 579 ± 40 (328.15 K).

Regarding `CCOC(C)(C)C` [2-ethoxy-2-methylpropane] + N#C[N-]C#N.OCCC[n+]1ccccc1, the activity coefficient runs as follows: (318.15 K) 85.6 ± 5.9; (328.15 K) 83.9 ± 5.8; (338.15 K) 82.4 ± 5.6; (348.15 K) 80.7 ± 5.5; (358.15 K) 79.1 ± 5.4; (368.15 K) 77.9 ± 5.3.

In the case of `CCC(C)(C)OC` [2-methoxy-2-methylbutane] + N#C[N-]C#N.OCCC[n+]1ccccc1, the activity coefficient reads like this: (318.15 K) 41.8 ± 2.9; (328.15 K) 42 ± 2.9; (338.15 K) 42.1 ± 2.9; (348.15 K) 42.3 ± 2.9; (358.15 K) 42.5 ± 2.9; (368.15 K) 42.6 ± 2.9.

With `COC(C)(C)C` [2-methoxy-2-methylpropane] + N#C[N-]C#N.OCCC[n+]1ccccc1, the activity coefficient is, setting by setting: (318.15 K) 25.1 ± 1.7; (328.15 K) 25.5 ± 1.7; (338.15 K) 25.9 ± 1.8; (348.15 K) 26.2 ± 1.8; (358.15 K) 26.6 ± 1.8; (368.15 K) 26.9 ± 1.8.

Regarding `CC(C)CO` [2-methyl-1-propanol] + N#C[N-]C#N.OCCC[n+]1ccccc1, the activity coefficient amounted to 3.31 ± 0.23 (318.15 K); 3.26 ± 0.22 (328.15 K); 3.2 ± 0.22 (338.15 K); 3.15 ± 0.21 (348.15 K); 3.11 ± 0.21 (358.15 K); 3.06 ± 0.21 (368.15 K).

In the case of `CC(C)(C)O` [2-methylpropan-2-ol] + N#C[N-]C#N.OCCC[n+]1ccccc1, the activity coefficient by setting is: (318.15 K) 3.08 ± 0.21; (328.15 K) 3.08 ± 0.21; (338.15 K) 3.07 ± 0.21; (348.15 K) 3.07 ± 0.21; (358.15 K) 3.07 ± 0.21; (368.15 K) 3.05 ± 0.21.

Values taken from the NIST ThermoML archive (doi:10.1016/j.jct.2017.03.004).
